Measurements from patent US10363239B2, “Method for inhibiting growth of cancer cells” (Pain Therapeutics, Inc., priority 2013, dated 2019).
Where two headings read alike, the source gives them in different places.

Tests used:
[1] = target: FLNA pentapeptide of SEQ ID NO: 1 (Bn-VAKGL) (Homo sapiens, UniProt P21333); assay: FITC-NLX-based FLNA screening assay (inhibition of FITC-naloxone binding to Bn-VAKGL on streptavidin plates); settings: 10 nM FITC-NLX
mu opiate receptor (MOR) = assay: MOR agonist activity using [35S]GTPγS binding assay in striatal membranes; format: biochemical; settings: for MOR agonist activity ([35S]GTPγS binding), FLNA-Binding Compound as Agonist 1 μM + BFNA: 1 μM compound + 1 μM β-funaltrexamine
Method in brief: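 Striatal membranes (200 μg) were preincubated 5 min at 30 °C in HEPES pH 7.5 with 100 mM NaCl, 1 mM MgCl2 and 0.5 nM [35S]GTPγS, then 5 min more with 0.1–10 μM compound. Gαo was immunoprecipitated and bound radioactivity counted by scintillation.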

[2] = read-out: Percent Binding Inhibition, FLNA-binding compound 0.01 μM
[3] = read-out: Percent Binding Inhibition, FLNA-binding compound 0.1 μM
[4] = read-out: Percent Binding Inhibition, FLNA-binding compound 1 μM
[5] = Series B, 0.1 μM compound, relative to DAMGO
[6] = Series B, 0.1 μM compound, [35S]GTPγS binding to Gαo, striatal membranes
[7] = Series B, 1 μM compound + 1 μM β-FNA
[8] = Series B, 1 μM compound + β-FNA, relative to DAMGO + BFNA
[9] = Series B, 1 μM compound, relative to DAMGO
[10] = Series B, 1 μM compound, [35S]GTPγS binding to Gαo, striatal membranes
[11] = FLNA-binding compound 0.01 μM, read-out: Percent Binding Inhibition
[12] = FLNA-binding compound 0.1 μM, read-out: Percent Binding Inhibition
[13] = FLNA-binding compound 1 μM, read-out: Percent Binding Inhibition
[14] = 0.1 μM compound relative to DAMGO
[15] = 1 μM compound + BFNA relative to DAMGO + BFNA
[16] = 1 μM compound relative to DAMGO
[17] = Series C-1, 0.1 μM compound, relative to DAMGO
[18] = Series C-1, 0.1 μM compound, [35S]GTPγS binding to Gαo, striatal membranes
[19] = Series C-1, 1 μM compound + 1 μM β-FNA
[20] = Series C-1, 1 μM compound + β-FNA, relative to DAMGO + BFNA
[21] = Series C-1, 1 μM compound, relative to DAMGO
[22] = Series C-1, 1 μM compound, [35S]GTPγS binding to Gαo, striatal membranes

SMILES | inhibition at 0.01 µM [1, 2] [%] | inhibition at 0.1 µM [1, 3] [%] | inhibition at 1 µM [1, 4] [%] | inhibition at 0.01 µM [1, 11] [%] | inhibition at 0.1 µM [1, 12] [%] | inhibition at 1 µM [1, 13] [%] | MOR agonist activity ([35S]GTPγS binding), FLNA-Binding Compound as Agonist 0.1 μM (mu opiate receptor (MOR); 0.1 μM compound) [%] | % DAMGO (0.1 μM) (mu opiate receptor (MOR); [14]) [%] | MOR agonist activity ([35S]GTPγS binding), FLNA-Binding Compound as Agonist 1 μM (mu opiate receptor (MOR); 1 μM compound) [%] | MOR agonist activity ([35S]GTPγS binding), FLNA-Binding Compound as Agonist 1 μM + BFNA (mu opiate receptor (MOR)) [%] | % DAMGO + BFNA (mu opiate receptor (MOR); [15]) [%] | % DAMGO (1 μM) (mu opiate receptor (MOR); [16]) [%] | also measured
COc1ccc(CCC(=O)CC2c3c(cc4c(c3OC)OCO4)CC[N+]2(C)C)cc1 (stereo not drawn) [Compound B0016] | 27.1 | 33.7 | 41.9 |  |  |  |  |  |  |  |  |  | % DAMGO (0.1 μM) (mu opiate receptor (MOR); [5]): 99.2%; MOR agonist activity, percent [35S]GTPγS binding at the stated compound concentration (mu opiate receptor (MOR); [6]): 167.7%; MOR agonist activity, percent [35S]GTPγS binding at the stated compound concentration (mu opiate receptor (MOR); [7]): 72.2%; % DAMGO + BFNA (mu opiate receptor (MOR); [8]): 109.4%; % DAMGO (1 μM) (mu opiate receptor (MOR); [9]): 79.9%; MOR agonist activity, percent [35S]GTPγS binding at the stated compound concentration (mu opiate receptor (MOR); [10]): 213.6%
Cc1cccc(OCC(O)CN2CC(C)OC(C)C2)c1 (stereo not drawn) [Compound A0030] |  |  |  | 35.6 | 44.4 | 48.9 | 133.4 | 75.5 | 287.8 | 165.2 | 628.1 | 113.2 | 
COc1ccc(C(=O)N2CCC3(CC2)OCCN3S(=O)(=O)c2ccc(OC)cc2)cc1 [Compound C0018] |  |  |  | 42.3 | 45.9 | 53.4 |  |  |  |  |  |  | % DAMGO (0.1 μM) (mu opiate receptor (MOR); [17]): 110.7%; Concentration of FLNA-Binding Compound as Agonist 0.1 μM (mu opiate receptor (MOR); [18]): 195.5%; Concentration of FLNA-Binding Compound as Agonist 1 μM + BFNA (mu opiate receptor (MOR); [19]): 106.5%; % DAMGO + BFNA (mu opiate receptor (MOR); [20]): 162.1%; % DAMGO (1 μM) (mu opiate receptor (MOR); [21]): 95.5%; Concentration of FLNA-Binding Compound as Agonist 1 μM (mu opiate receptor (MOR); [22]): 247.7%
CC1CN(CC(O)COc2ccccc2Br)CC(C)O1 (stereo not drawn) [Compound A0043] |  |  |  | 46.4 | 48.9 | 51.8 | 183.3 | 93.4 | 223.8 | 89.1 | 120.6 | 81.1 | 
CC1CCC(C(C)C)C(OCC(O)CN2CC(C)OC(C)C2)C1 (stereo not drawn) [Compound A0032-1] |  |  |  | 35.6 | 43.9 | 50 | 187.4 | 95.5 | 324.5 | 224.5 | 303.8 | 117.6 | 
O=S(=O)(c1ccc2ccccc2c1)N1CCC2(CC1)OCCN2S(=O)(=O)c1ccc2ccccc2c1 [Compound C0140M] | 42.3 | 49.2 | 54.4 |  |  |  |  |  |  |  |  |  | % DAMGO (0.1 μM) (mu opiate receptor (MOR); [17]): 85.8%; Concentration of FLNA-Binding Compound as Agonist 0.1 μM (mu opiate receptor (MOR); [18]): 126.1%; Concentration of FLNA-Binding Compound as Agonist 1 μM + BFNA (mu opiate receptor (MOR); [19]): 83.0%; % DAMGO + BFNA (mu opiate receptor (MOR); [20]): 211.2%; % DAMGO (1 μM) (mu opiate receptor (MOR); [21]): 106.5%; Concentration of FLNA-Binding Compound as Agonist 1 μM (mu opiate receptor (MOR); [22]): 215.4%
COc1cc(F)ccc1C(=O)CC1c2c(cc3c(c2OC)OCO3)CC[N+]1(C)C (stereo not drawn) [Compound B0007] | 43.6 | 53.1 | 57.3 |  |  |  |  |  |  |  |  |  | % DAMGO (0.1 μM) (mu opiate receptor (MOR); [5]): 95.3%; MOR agonist activity, percent [35S]GTPγS binding at the stated compound concentration (mu opiate receptor (MOR); [6]): 168.3%; MOR agonist activity, percent [35S]GTPγS binding at the stated compound concentration (mu opiate receptor (MOR); [7]): 64.5%; % DAMGO + BFNA (mu opiate receptor (MOR); [8]): 98.2%; % DAMGO (1 μM) (mu opiate receptor (MOR); [9]): 86.1%; MOR agonist activity, percent [35S]GTPγS binding at the stated compound concentration (mu opiate receptor (MOR); [10]): 223.3%
